Series [1] relates to mouse. The note with it: Multigenerational reproductive toxicity study, cd1, Oral, Feed, dose end: 2 generation.
In series [2] the test system is mouse. The following applies: Prenatal developmental toxicity study, cd1, Oral, Gavage/Intubation, dose end: 15 GD.
The subject of series [3] is rabbit. The note with it: Prenatal developmental toxicity study, new zealand white, Oral, Gavage/Intubation, dose end: 20 GD.
The test system of series [4] is rat. The following applies: Multigenerational reproductive toxicity study, sprague dawley, Oral, Feed, dose end: 2 generation, systemic / hematology / erythrocyte (rbc) count differential / erythrocyte (rbc) + systemic / hematology / hematocrit (hct) / hematocrit (….
For series [5], the system named is rat. The following applies: Subchronic oral toxicity in rodents, sprague dawley, Gavage/Intubation, dose end: 19 GD.
Setting [6] is: group: offspring, systemic / in life observation / body weight / offspring (pup) weight + developmental / offspring survival late / lactation index / ….
Setting [7] is: group: parental, systemic / in life observation / body weight / body weight + systemic / in life observation / body weight / body weight gain + systemic / in….
Setting [8] is: group: reproductive, reproductive / reproductive performance / fertility / fertility.
[9] abbreviates: group: reproductive, reproductive / reproductive performance / fertility / fertility + reproductive / offspring survival early / litter size / litter size.
Where [10] appears, read: group: developmental, developmental / developmental malformation / bone / exencephaly + developmental / developmental malformation / trunk / omphalocele + ….
The mark [11] stands for this setting: group: maternal, reproductive / reproductive performance / resorptions / resorptions + systemic / in life observation / body weight / dam weight.
The mark [12] stands for this setting: group: maternal, reproductive / reproductive performance / resorptions / resorptions + systemic / in life observation / body weight / dam weight + ….
The mark [13] stands for this setting: group: developmental, systemic / in life observation / body weight / fetal weight.
Where [14] appears, read: group: maternal, reproductive / reproductive performance / aborted / aborted + systemic / in life observation / body weight / body weight gain.
The mark [15] stands for this setting: group: developmental, developmental / developmental malformation / bone / ossification sites + developmental / developmental malformation / bone / supernumerary.
Setting [16] is: group: systemic, systemic / in life observation / body weight / body weight + systemic / in life observation / body weight / body weight gain + systemic / in….

The values below come from EPA's ToxRefDB 2.

As usually defined, the LOAEL is the lowest tested level that showed an adverse finding. For orientation: NOAEL means the highest dose or exposure tested at which no adverse effect was seen.

For the compound `O=[As](O)(O)O` [Arsenic acid], the LOAEL was determined as 25 mg/kg/day in series [1] (group: offspring, systemic / in life observation / body weight / offspring (pup) weight); 5 mg/kg/day in series [1] (setting [7]); 25 mg/kg/day in series [1] (setting [9]); 64 mg/kg/day in series [2] (setting [10]); 32 mg/kg/day in series [2] (setting [11]). The LEL amounted to 25 mg/kg/day in series [1] (setting [6]); 5 mg/kg/day in series [1] (setting [7]); 25 mg/kg/day in series [1] (setting [9]); 64 mg/kg/day in series [2] (setting [10]); 32 mg/kg/day in series [2] (setting [11]). Also, the NEL came out at 5 mg/kg/day in series [1] (setting [6]); 1 mg/kg/day in series [1] (setting [7]); 5 mg/kg/day in series [1] (setting [8]); 32 mg/kg/day in series [2] (setting [10]); 10 mg/kg/day in series [2] (setting [12]). For the same compound, the NOAEL is 5 mg/kg/day in series [1] (setting [6]); 1 mg/kg/day in series [1] (setting [7]); 5 mg/kg/day in series [1] (setting [8]); 32 mg/kg/day in series [2] (setting [10]); 10 mg/kg/day in series [2] (setting [12]).

In series [3] (setting [13]), `O=S(=O)(O)C(F)(F)C(F)(F)C(F)(F)C(F)(F)C(F)(F)C(F)(F)C(F)(F)C(F)(F)F` [PFOS] registered an LEL of 3.75 mg/kg/day, an LOAEL above 3.75 mg/kg/day, an NEL of 1 mg/kg/day and a no-observed-adverse-effect level (NOAEL) of at least 3.75 mg/kg/day. In addition, in series [3] (setting [14]), the LOAEL is above 2.5 mg/kg/day, the NEL is 0.1 mg/kg/day and the NOAEL was at least 2.5 mg/kg/day. The same compound displayed an LEL in series [3] (group: maternal, systemic / in life observation / body weight / body weight gain) of 1 mg/kg/day.

With `O=C(Nc1ccc(F)cc1)c1cccc(Oc2cccc(C(F)(F)F)c2)n1` [Picolinafen], in series [4] (group: offspring), the LEL was determined as 21 mg/kg/day, the LOAEL is above 43 mg/kg/day, the NEL came out at 4.3 mg/kg/day and the no observed adverse effect level (NOAEL) is at least 43 mg/kg/day. For the same compound, in series [4] (group: parental), the LEL was found to be 19 mg/kg/day, the lowest observed adverse effect level (LOAEL) stood at 19 mg/kg/day, the NEL is 3.7 mg/kg/day and the NOAEL is 3.7 mg/kg/day.

On to `CC(=O)OC(C)(C)C` [tert-Butyl acetate], for which, in series [5] (setting [15]), the LEL turned out to be 800 mg/kg/day, the LOAEL is above 1600 mg/kg/day, the NEL was 400 mg/kg/day and the no-observed-adverse-effect level (NOAEL) is at least 1600 mg/kg/day. In series [5] (setting [16]), the LEL was 1600 mg/kg/day, the LOAEL is above 1600 mg/kg/day, the NEL worked out at 800 mg/kg/day and the NOAEL was at least 1600 mg/kg/day.
